molecular target: human APJ receptor (Homo sapiens (Human), UniProt P35414); test: [35S]GTPγS binding assay on membranes from CHO cells stably expressing human APJ receptor; type: biochemical; conditions: membranes of CHO cells stably expressing human APJ receptor, read-out: Activity hAPJ SPA EC50 IP
Outline: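 Agonist EC50 values come from non-linear regression of mean data from several independent runs. Membranes of CHO cells stably expressing human APJ were incubated 90 min at room temperature with [35S]GTPγS in buffer with optimized GDP, MgCl2 and NaCl, then read on a microplate imager.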

Chain of human APJ receptor (P35414 whole entry): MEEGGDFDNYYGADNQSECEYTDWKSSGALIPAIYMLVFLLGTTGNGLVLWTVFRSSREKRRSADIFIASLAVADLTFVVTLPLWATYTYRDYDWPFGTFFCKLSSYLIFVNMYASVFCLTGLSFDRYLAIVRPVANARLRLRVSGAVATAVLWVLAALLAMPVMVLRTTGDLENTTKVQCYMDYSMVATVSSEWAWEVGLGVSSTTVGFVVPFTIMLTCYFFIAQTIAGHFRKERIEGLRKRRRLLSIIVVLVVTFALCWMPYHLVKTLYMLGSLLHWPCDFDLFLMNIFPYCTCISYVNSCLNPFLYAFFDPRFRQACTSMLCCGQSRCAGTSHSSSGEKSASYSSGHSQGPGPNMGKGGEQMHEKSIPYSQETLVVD

| SMILES | EC50 [nM] |
| --- | --- |
| COCC(COC)n1c(NS(=O)(=O)[C@@H](C)[C@@H](OC(C)C)c2ncc(Cl)cn2)nnc1-c1ccccn1 [Example 113.0] | 1.8 |
| COc1cccc(-c2nnc(NS(=O)(=O)[C@@H](C)[C@H](OC)c3ncc(Cl)cn3)n2Cc2cnoc2)n1 [Example 186.0, (1R,2S)-1-(5-chloropyrimidin-2-yl)-N-(4-(isoxazol-4-ylmethyl)-5-(6-methoxypyridin-2-yl)-4H-1,2,4-triazol-3-yl)-1-methoxypropane-2-sulfonamide] | 98 |
| COCC1(n2c(NS(=O)(=O)[C@@H](C)[C@H](OC)c3ncc(Cl)cn3)nnc2-c2ccccn2)CCC1 [Example 51.0] | 1.8 |
| COc1cccc(-c2nnc(NS(=O)(=O)[C@@H](C)[C@H](C)c3ncc(Cl)cn3)n2C[C@H]2CCCO2)n1 (racemic) [Example 282.0, (2S,3R)-3-(5-chloropyrimidin-2-yl)-N-(5-(6-methoxypyridin-2-yl)-4-(((R)-tetrahydrofuran-2-yl)methyl)-4H-1,2,4-triazol-3-yl)butane-2-sulfonamide or (2S,3R)-3-(5-chloropyrimidin-2-yl)-N-(5-(6-methoxypyridin-2-yl)-4-(((S)-tetrahydrofuran-2-yl)methyl)-4H-1,2,4-triazol-3-yl)butane-2-sulfonamide] | 54 |
| CO[C@H](c1ncc(Cl)cn1)[C@H](C)S(=O)(=O)Nc1nnc(-c2ccccn2)n1C [Example 130.0] | 350 |
| COc1cccc(-c2nnc(NS(=O)(=O)[C@@H](C)[C@H](C)c3ncc(Cl)cn3)n2[C@@H](C)c2ccon2)n1 (racemic) [Example 267.0, (2S,3R)-3-(5-chloropyrimidin-2-yl)-N-(4-((R)-1-(isoxazol-3-yl)ethyl)-5-(6-methoxypyridin-2-yl)-4H-1,2,4-triazol-3-yl)butane-2-sulfonamide or (2S,3R)-3-(5-chloropyrimidin-2-yl)-N-(4-((S)-1-(isoxazol-3-yl)ethyl)-5-(6-methoxypyridin-2-yl)-4H-1,2,4-triazol-3-yl)butane-2-sulfonamide] | 4.2 |
| COc1cnc([C@@H](C)[C@H](C)S(=O)(=O)Nc2nnc(-c3cccc(OC)n3)n2C2CC2)cn1 [Example 118.0] | 31 |
| COc1cccc(-c2nnc(NS(=O)(=O)[C@@H](C)[C@H](OC)c3ncc(Cl)cn3)n2C2CCC2)n1 [Example 182.0, (1R,2S)-1-(5-chloro-2-pyrimidinyl)-N-(4-cyclobutyl-5-(6-methoxy-2-pyridinyl)-4H-1,2,4-triazol-3-yl)-1-methoxy-2-propanesulfonamide] | 25 |
| CCc1noc(C)c1Cn1c(NS(=O)(=O)[C@@H](C)[C@H](OC)c2cnc(C)cn2)nnc1-c1cccc(OC)n1 [Example 195.0, (1R,2S)-N-(4-((3-ethyl-5-methylisoxazol-4-yl)methyl)-5-(6-methoxypyridin-2-yl)-4H-1,2,4-triazol-3-yl)-1-methoxy-1-(5-methylpyrazin-2-yl)propane-2-sulfonamide] | 650 |
| COc1cccc(-c2nnc(NS(=O)(=O)[C@@H](C)[C@@H](OC(C)C)c3ncc(C)cn3)n2[C@@H](C)[C@H]2CCCO2)n1 (single isomer, unassigned) [Example 274.0] | 2.2 |
| COc1cccc(-c2nnc(NS(=O)(=O)[C@@H](C)[C@H](OC)c3ncc(Cl)cn3)n2[C@@H]2CC23CC3)n1 (single isomer, unassigned) [Example 91.0] | 38 |
| COc1cccc(-c2nnc(NS(=O)(=O)[C@@H](C)[C@H](C)c3ncc(Cl)cn3)n2[C@H](c2conc2C)C2CC2)n1 (single isomer, unassigned) [Example 229.0, (2S,3R)-3-(5-chloro-2-pyrimidinyl)-N-(4-((S)-cyclopropyl(3-methyl-1,2-oxazol-4-yl)methyl)-5-(6-methoxy-2-pyridinyl)-4H-1,2,4-triazol-3-yl)-2-butanesulfonamide or (2S,3R)-3-(5-chloro-2-pyrimidinyl)-N-(4-((R)-cyclopropyl(3-methyl-1,2-oxazol-4-yl)methyl)-5-(6-methoxy-2-pyridinyl)-4H-1,2,4-triazol-3-yl)-2-butanesulfonamide] | 1.2 |
| COc1cccc(-c2nnc(NS(=O)(=O)[C@@H](C)[C@@H](OC(C)C)c3ncc(C)cn3)n2C[C@H]2CCCO2)n1 (racemic) [Example 277.0, (1S,2S)-1-isopropoxy-N-(5-(6-methoxypyridin-2-yl)-4-(((R)-tetrahydrofuran-2-yl)methyl)-4H-1,2,4-triazol-3-yl)-1-(5-methylpyrimidin-2-yl)propane-2-sulfonamide or (1S,2S)-1-isopropoxy-N-(5-(6-methoxypyridin-2-yl)-4-(((S)-tetrahydrofuran-2-yl)methyl)-4H-1,2,4-triazol-3-yl)-1-(5-methylpyrimidin-2-yl)propane-2-sulfonamide] | 14 |
| COc1cccc(-c2nnc(NS(=O)(=O)[C@@H](C)[C@H](OC)c3ncc(Cl)cn3)n2C2CC2(F)F)n1 (mixture of isomers) [Example 156.0, (1R,2S)-1-(5-Chloropyrimidin-2-yl)-N-(4-((S)-2,2-difluorocyclopropyl)-5-(6-methoxypyridin-2-yl)-4H-1,2,4-triazol-3-yl)-1-methoxypropane-2-sulfonamide and (1R,2S)-1-(5-chloropyrimidin-2-yl)-N-(4-((R)-2,2-difluorocyclopropyl)-5-(6-methoxypyridin-2-yl)-4H-1,2,4-triazol-3-yl)-1-methoxypropane-2-sulfonamide] | 37 |
| COC[C@H](C)n1c(NS(=O)(=O)[C@@H](C)[C@H](C)c2ncc(Cl)cn2)nnc1-c1cncc(C)c1 [Example 176.0, (2S,3R)-3-(5-chloro-2-pyrimidinyl)-N-(4-((2S)-1-methoxy-2-propanyl)-5-(5-methyl-3-pyridinyl)-4H-1,2,4-triazol-3-yl)-2-butanesulfonamide] | 110 |
| COCC1(n2c(NS(=O)(=O)[C@@H](C)[C@@H](OC(C)C)c3ncc(C)cn3)nnc2-c2ccccn2)CC1 [Example 65.0] | 24 |
| [2H]C1([2H])C(n2c(NS(=O)(=O)[C@@H](C)[C@@H](OC(C)C)c3ncc(C)cn3)nnc2-c2cccc(OC)n2)C1([2H])[2H] [Example 164.0, (1S,2S)—N-(4-(Cyclopropyl-2,2,3,3-d4)-5-(6-methoxypyridin-2-yl)-4H-1,2,4-triazol-3-yl)-1-isopropoxy-1-(5-methylpyrimidin-2-yl)propane-2-sulfonamide] | 11 |
| COc1cccc(-c2nnc(NS(=O)(=O)[C@@H](C)[C@@H](OC(C)C)c3ncc(C)cn3)n2[C@@H](C)c2nc(C)no2)n1 (single isomer, unassigned) [Example 239.0] | 2.6 |
| COc1cccc(-c2nnc(NS(=O)(=O)[C@@H](C)[C@@H](OC(C)C)c3ncc(C)cn3)n2[C@@H](C)[C@H]2CCCO2)n1 (single isomer, unassigned) [Example 275.0] | 18 |
| COc1cccc(-c2nnc(NS(=O)(=O)[C@@H](C)[C@H](OC)c3ncc(Cl)cn3)n2[C@H](C)c2cc(F)cc(F)c2)n1 (single isomer, unassigned) [Example 341.0, (1R,2S)-1-(5-chloropyrimidin-2-yl)-N-(4-((R)-1-(3,5-difluorophenyl)ethyl)-5-(6-methoxypyridin-2-yl)-4H-1,2,4-triazol-3-yl)-1-methoxypropane-2-sulfonamide or (1R,2S)-1-(5-chloropyrimidin-2-yl)-N-(4-((S)-1-(3,5-difluorophenyl)ethyl)-5-(6-methoxypyridin-2-yl)-4H-1,2,4-triazol-3-yl)-1-methoxypropane-2-sulfonamide] | 0.13 |
| COc1cccc(-c2nnc(NS(=O)(=O)[C@@H](C)[C@H](OC)c3ncc(Cl)cn3)n2C2CC2)n1 [Example 69.0] | 0.89 |
| COc1cccc(-c2nnc(NS(=O)(=O)[C@@H](C)[C@H](OC)c3ncc(Cl)cn3)n2[C@@H]2CCC23CCC3)n1 (single isomer, unassigned) [Example 92.0] | 1.2 |
| CC[C@@H](c1conc1C)n1c(NS(=O)(=O)[C@@H](C)[C@H](C)c2ncc(Cl)cn2)nnc1-c1cccc(OC)n1 (mixture of isomers) [Example 227.0, (2S,3R)-3-(5-chloro-2-pyrimidinyl)-N-(5-(6-methoxy-2-pyridinyl)-4-((1R)-1-(3-methyl-1,2-oxazol-4-yl)propyl)-4H-1,2,4-triazol-3-yl)-2-butanesulfonamide and (2S,3R)-3-(5-chloro-2-pyrimidinyl)-N-(5-(6-methoxy-2-pyridinyl)-4-((1S)-1-(3-methyl-1,2-oxazol-4-yl)propyl)-4H-1,2,4-triazol-3-yl)-2-butanesulfonamide] | 4.5 |
| CC[C@@H](c1c(C)noc1C)n1c(NS(=O)(=O)[C@@H](C)[C@H](OC)c2cnc(C)cn2)nnc1-c1cccc(OC)n1 (single isomer, unassigned) [Example 223.0, (1R,2S)-N-(4-((1R)-1-(3,5-dimethyl-1,2-oxazol-4-yl)propyl)-5-(6-methoxy-2-pyridinyl)-4H-1,2,4-triazol-3-yl)-1-methoxy-1-(5-methyl-2-pyrazinyl)-2-propanesulfonamide or (1R,2S)-N-(4-((1S)-1-(3,5-dimethyl-1,2-oxazol-4-yl)propyl)-5-(6-methoxy-2-pyridinyl)-4H-1,2,4-triazol-3-yl)-1-methoxy-1-(5-methyl-2-pyrazinyl)-2-propanesulfonamide] | 32 |
| COCC(COC)n1c(NS(=O)(=O)[C@@H](C)[C@H](OC)c2ncc(C)cn2)nnc1-c1cccc(OC)n1 [Example 100.0] | 6.4 |
| COc1cccc(-c2nnc(NS(=O)(=O)[C@@H](C)[C@H](OC)c3ncc(Cl)cn3)n2[C@H](C)c2cncs2)n1 (single isomer, unassigned) [Example 346.0, (1R,2S)-1-(5-chloropyrimidin-2-yl)-1-methoxy-N-(5-(6-methoxypyridin-2-yl)-4-((R)-1-(thiazol-5-yl)ethyl)-4H-1,2,4-triazol-3-yl)propane-2-sulfonamide or (1R,2S)-1-(5-chloropyrimidin-2-yl)-1-methoxy-N-(5-(6-methoxypyridin-2-yl)-4-((S)-1-(thiazol-5-yl)ethyl)-4H-1,2,4-triazol-3-yl)propane-2-sulfonamide] | 4.4 |
